This is an account of results in ChEMBL document CHEMBL5357021, “Novel Triazolopyridine-Based BRD4 Inhibitors as Potent HIV-1 Latency Reversing Agents” (ACS Med Chem Lett, 2024).

Activity calls are given as the source filed them. The calls are words filed in the database; no cut-off is given here. Where only a bound is given, the exact number is not on record here.

What is called EC50 is the concentration at which the effect is half-maximal. As a reminder, the CC50 is the concentration that lowers cell viability or growth by half.

The subject of series [1] is Human immunodeficiency virus 1. As to the kind of experiment: Reversal of HIV-1 latency in CD4+ T-lymphoid J-Lat cells contains HIV-1 long terminal repeats (LTR)-Tat-GFP assessed as reactivation measured after 48 hrs by flow cytometry. Type of series: functional, organism-based. The conditions noted are these: Human immunodeficiency virus 1, J-Lat 10.6, 48 h. For orientation: A flow cytometer gives signals particle by particle.

Series [2] in a line: Cytotoxicity against human non-infected J-Lat A10.6 cells assessed as cell death by CCK8 assay. Type of series: toxicity, cell-based, J-Lat 10.6.
Series [3] concerns the target Bromodomain-containing protein 4 (Homo sapiens) (UniProt O60885). As to the kind of experiment: Inhibition of BRD4 BD1 domain (unknown origin) at 1 uM by HTRF assay. In general terms: Time-resolved FRET reads energy transfer from a long-lived donor to a nearby acceptor.
Series [4] shares this target. As to the kind of experiment: Inhibition of BRD4 BD2 domain (unknown origin) at 1 uM by HTRF assay.
The subject of series [5] is Human immunodeficiency virus 1. As to the kind of experiment: Reversal of HIV-1 latency in ACH-2 cell line contains complete HIV-1 provirus assessed as reactivation by measuring HIV-1 p24 antigen expression 5 uM measured after 48 hrs by ELISA. The series is classed as functional, organism-based. Background: An ELISA detects its analyte on a solid surface through an enzyme-linked reagent.

Series [6] concerns the target Bromodomain-containing protein 4 (Homo sapiens) (UniProt O60885). The series is described as follows: Inhibition of BRD4 phosphorylation in human J-Lat A10.6 cells contains HIV-1 long terminal repeats (LTR)-Tat-GFP at 1 uM measured after 24 hrs by Western blotting analysis. The conditions noted are these: J-Lat 10.6. Type of series: cell-based.
Series [7] shares this target. As to the kind of experiment: Inhibition of BRD4 in human J-Lat 10.6 cells contains HIV-1 long terminal repeats (LTR)-Tat-GFP assessed as increased CDK9 enrichment in LTR at 1 uM incubated for 6 hrs by ChiP assay. Type of series: cell-based.
Series [8] has the same target. The series is described as follows: Inhibition of BRD4 in human J-Lat 10.6 cells contains HIV-1 long terminal repeats (LTR)-Tat-GFP assessed as increased RNA pol II enrichment in LTR at 1 uM incubated for 6 hrs by ChiP assay. The series is classed as cell-based.
Series [9] relates to PBMC. The series is described as follows: Immune hyper-activation in human PBMC cells assessed as CD25 expression at 1 uM measured after 48 hrs by flow cytometry. The series is classed as toxicity, cell-based.
Series [10] deals with PBMC. The series is described as follows: Immune hyper-activation in human PBMC cells assessed as CD69 expression at 1 uM measured after 48 hrs by flow cytometry. Type of series: toxicity, cell-based.
The test system of series [11] is PBMC. As to the kind of experiment: Immune hyper-activation in human PBMC cells assessed as HLA-DR expression at 1 uM measured after 48 hrs by flow cytometry. The series is classed as toxicity, cell-based.
In series [12] the test system is C8166. The series is described as follows: Anti-HIV activity against HIV-1IIIB acute infected in human C8166 cells assessed as inhibition of p24 expression at 1 nM incubated for 72 hrs by ELISA assay in presence of N-(4-(2,4-difluorophenoxy)-3-(3-methyl-[1,2,4]triazolo[4,3-a]pyridin-6-yl)phenyl)-4-fluorobenzenesulfonamide. Type of series: functional, cell-based.

Series [13] deals with Human immunodeficiency virus 1. As to the kind of experiment: Anti-HIV activity against HIV-1IIIB acute infected in human C8166 cells assessed as inhibition of p24 expression at 25 nM incubated for 72 hrs by ELISA assay in presence of N-(4-(2,4-difluorophenoxy)-3-(3-methyl-[1,2,4]triazolo[4,3-a]pyridin-6-yl)phenyl)-4-fluorobenzenesulfonamide. The series is classed as functional, organism-based.

Series [14] deals with Human immunodeficiency virus 1. The series is described as follows: Anti-HIV activity against HIV-1IIIB acute infected in human C8166 cells assessed as inhibition of p24 expression at 50 nM incubated for 72 hrs by ELISA assay in presence of N-(4-(2,4-difluorophenoxy)-3-(3-methyl-[1,2,4]triazolo[4,3-a]pyridin-6-yl)phenyl)-4-fluorobenzenesulfonamide. The series is classed as functional, organism-based.

With `COC(=O)CCCCCCC(=O)Nc1ccc(Oc2ccc(Cl)cc2F)c(-c2ccc3nnc(C)n3c2)c1`, the EC50 in series [1] is greater than 50 µM. Also, in [2], the CC50 was greater than 50 µM.
For `Cc1nnc2ccc(-c3cc(NS(=O)(=O)c4ccc(Cl)cc4)ccc3Oc3ccc(F)cc3F)cn12`, the EC50 in series [1] is 17.7 µM. The CC50 in series [2] is greater than 50 µM. Besides, the inhibition entry in series [3] and in series [4] was “Active” throughout.
For `Cc1nnc2ccc(-c3cc(NS(=O)(=O)c4cccc(Br)c4)ccc3Oc3ccc(F)cc3F)cn12`, the EC50 in series [1] turned out to be 17.2 µM. In addition, in [2], the CC50 was greater than 50 µM. Moreover, the inhibition result in series [3] and in series [4] was “Active” each time.
As to `CCS(=O)(=O)Nc1ccc(Oc2ccc(Cl)cc2F)c(-c2ccc3nnc(C)n3c2)c1`, in [1], the EC50 is 5.6 µM. For the same molecule, the CC50 in series [2] is 12.3 µM. Besides, the result in [5] was Active. Moreover, the inhibition entry in series [3] and in series [4] was “Active” in each case.
On to `Cc1nnc2ccc(-c3cc(NC(=O)C4CC4)ccc3Oc3ccc(F)cc3F)cn12`, for which the EC50 in series [1] is greater than 50 µM. In addition, the half-maximal cytotoxic concentration (CC50) in series [2] is greater than 50 µM.
Regarding `Cc1csc2c1C(c1ccc(Cl)cc1)=N[C@@H](CC(=O)OC(C)(C)C)c1nncn1-2` (racemic), the inhibition result in series [6], in series [7], in series [8], in [3] and in [4] was “Active” each time. Also, the outcome in series [5] was Active. The Activity entry in series [9], in [10] and in series [11] was “Non-Toxic” each time.
In the case of `Cc1nnc2ccc(-c3cc(NS(=O)(=O)c4ccc(C(F)(F)F)cc4)ccc3Oc3ccc(F)cc3F)cn12`, the concentration giving a half-maximal response (EC50) in series [1] was greater than 50 µM. In series [2], the CC50 is greater than 50 µM.
On to `Cc1nnc2ccc(-c3cc(NS(=O)(=O)C4CC4)ccc3Oc3ccc(F)cc3F)cn12`, for which the concentration for a half-maximal effect (EC50) in [1] was 4.3 µM. For the same molecule, in [2], the CC50 is greater than 50 µM. In addition, the result in series [5] was Active. Besides, the inhibition entry in [3] and in series [4] was “Active” in each case.
Turning to `COc1ccc(Br)cc1S(=O)(=O)Nc1ccc(Oc2ccc(F)cc2F)c(-c2ccc3nnc(C)n3c2)c1`, in series [1], the EC50 is greater than 50 µM. In addition, the CC50 in [2] was greater than 50 µM.
Turning to `O=C1Nc2ccc(Cl)cc2[C@@](C#CC2CC2)(C(F)(F)F)O1`, in series [12], the result was Active.
Consider `CCCS(=O)(=O)Nc1ccc(Oc2ccc(F)cc2F)c(-c2ccc3nnc(C)n3c2)c1`, for which, in series [1], the EC50 came to 5.4 µM. Also, the CC50 in series [2] stood at 44.7 µM. The inhibition result in series [3] and in [4] was “Active” in each case.
In the case of `Cc1nnc2ccc(-c3cc(NC(=O)CCCCCCC(=O)NO)ccc3Oc3ccc(Cl)cc3F)cn12`, the EC50 in [1] was 13.4 µM. Further, the CC50 in series [2] amounted to 28.7 µM.
With `CCC(=O)Nc1ccc(Oc2ccc(F)cc2F)c(-c2ccc3nnc(C)n3c2)c1`, the EC50 in [1] amounted to 17.8 µM. Further, the CC50 in series [2] was greater than 50 µM.
Turning to `Cc1nnc2ccc(-c3cc(NS(=O)(=O)c4ccccc4)ccc3Oc3ccc(F)cc3F)cn12`, the EC50 in [1] was greater than 50 µM. The CC50 in [2] was greater than 50 µM. Further, the inhibition entry in series [3] and in series [4] was “Active” each time.
For the molecule `Cc1nnc2ccc(-c3cc(NC(=O)CCCCCCC(=O)NO)ccc3Oc3ccc(F)cc3F)cn12`, the EC50 in series [1] is greater than 50 µM. The cytotoxic concentration (CC50) in [2] is greater than 50 µM.
`COC(=O)CCCCCCC(=O)Nc1ccc(Oc2ccc(F)cc2F)c(-c2ccc3nnc(C)n3c2)c1`: the EC50 in series [1] was greater than 50 µM. In addition, in series [2], the CC50 is greater than 50 µM.
On to `Cc1nnc2ccc(-c3cc(NS(=O)(=O)c4ccc([N+](=O)[O-])cc4)ccc3Oc3ccc(F)cc3F)cn12`, for which the EC50 in [1] is greater than 50 µM. In [2], the CC50 was greater than 50 µM.
As to `CC(C)CN(C[C@@H](O)[C@H](Cc1ccccc1)NC(=O)O[C@H]1CO[C@H]2OCC[C@H]21)S(=O)(=O)c1ccc(N)cc1`, the outcome in series [13] was Active.
As to `Cc1nnc(C(=O)NC(C)(C)c2nc(C(=O)NCc3ccc(F)cc3)c(O)c(=O)n2C)o1`, the outcome in series [14] was Active.
Consider `COc1ccc(S(=O)(=O)Nc2ccc(Oc3ccc(F)cc3F)c(-c3ccc4nnc(C)n4c3)c2)cc1`, for which the EC50 in series [1] amounted to 6.8 µM. Moreover, in [2], the CC50 is greater than 50 µM. Further, the inhibition entry in series [3] and in series [4] was “Active” in each case.
On to `Cc1nnc2ccc(-c3cc(NS(=O)(=O)c4ccc(Br)cc4)ccc3Oc3ccc(F)cc3F)cn12`, for which, in series [1], the EC50 was greater than 50 µM. Further, the CC50 in [2] came out at 43.9 µM.
As to `C=CS(=O)(=O)Nc1ccc(Oc2ccc(Cl)cc2F)c(-c2ccc3nnc(C)n3c2)c1`, the EC50 in series [1] turned out to be 2 µM. Besides, in series [2], the CC50 was determined as 44.2 µM. In addition, the inhibition result in [3] and in series [4] was “Active” each time.
As to `CCS(=O)(=O)Nc1ccc(Oc2ccc(Cl)cc2Cl)c(-c2ccc3nnc(C)n3c2)c1`, the result in [5] was Active.
Turning to `CCS(=O)(=O)Nc1ccc(Oc2ccc(F)cc2F)c(-c2cn(C)c(=O)c3[nH]ccc23)c1`, in [5], the outcome was Active. Besides, the inhibition result in series [3] and in series [4] was “Active” in each case.
Take `Cc1nnc2ccc(-c3cc(NS(=O)(=O)c4cccs4)ccc3Oc3ccc(Cl)cc3F)cn12`: in series [5], the result was Active. Besides, the inhibition entry in series [3] and in series [4] was “Active” each time.
`Cn1cc(-c2cc(NS(=O)(=O)c3ccc(F)cc3)ccc2Oc2ccc(Cl)cc2F)c2cc[nH]c2c1=O`: the inhibition entry in series [3] and in [4] was “Active” throughout.
In the case of `Cc1nnc2ccc(-c3cc(NC(=O)C(C)(C)C)ccc3Oc3ccc(Cl)cc3F)cn12`, the concentration for a half-maximal effect (EC50) in [1] was greater than 50 µM. Moreover, in [2], the 50% cytotoxic concentration (CC50) stood at 32.9 µM.
The like results for `Cc1ccc(S(=O)(=O)Nc2ccc(Oc3ccc(F)cc3F)c(-c3ccc4nnc(C)n4c3)c2)cc1` were, in that order, greater than 50 µM and greater than 50 µM.
For the molecule `Cc1nnc2ccc(-c3cc(NS(=O)(=O)c4cccs4)ccc3Oc3ccc(F)cc3F)cn12`, in series [1], the EC50 stood at 6.6 µM. The CC50 in [2] was greater than 50 µM. Also, in [5], the result was Active. In addition, the inhibition entry in [3] and in series [4] was “Active” in each case.
